Key:
[1] = Moisture content according to hydration number; assay type: physicochemical; conditions: actual moisture content, methanesulfonate hydrates
Method: The moisture content of the hydrate varies with the hydration number (n) of the hydrated molecule. Since the molecular weight of 7-(4-amino-methyl-3-methyloxylminopyrrolidin-1-yl)-1-cyclopropyl-6-fluoro- 4-oxo-1,4-dihydro-1,8-naphthyridine-3-carboxylic acid methanesulfonate is 485.5, the moisture content of the hydrate for n equal to 1, 1.5, 2, 2.5, 3, 3.5 or 4 is calculated to be 3.6%, […], 6.9%, 8.5%, 10.0%, 11.5% or 12.9%, respectively. However, the actual moisture content may differ from the calculated moisture content depending on differences in recrystallization conditions, drying conditions, etc.

[2] = Equilibrium moisture content determination of hydrates; assay type: physicochemical
Method: Six saturated aqueous salt solutions were introduced into each desiccator to control the inner relative humidity to a specific value as represented in the following Table 28. Then, equilibrium moisture contents of 3 hydrate and 1.5 hydrate prepared in Examples 205 and 206, respectively, were determined at several relative humidities.
Specifically, 100 mg of the sample was spread on a preweighed Petri dish and the total weight was accurately measured, then three of the sample were placed in each desiccator of Table 28. The desiccators were allowed to stand at normal temperature for 7 days and then the sample was taken to be weighed. After 13 days had passed, one of the three samples inside each desiccator was taken and the moisture content of each was measured by the thermogravimetric analysis described in Test Example 2. Equilibrium moisture content at each relative humidity is represented in FIG. 3 (3 hydrate), and FIG. 4 (1.5 hydrate). […] Both hydrates are stable since they keep a constant equilibrium moisture content regardless of the relative humidity change.

[3] = Chemical stability under heating; conditions: for thermal stability: hydrate
Method: The anhydride and each of the hydrates was introduced into a glass vial and maintained at 70° C.

In the case of `CON=C1CN(c2nc3c(cc2F)c(=O)c(C(=O)O)cn3C2CC2)CC1CN` (centres unmarked) [1 hydrate, 7-(4-aminomethyl-3-methyloxylminopyrrolidin-1-yl)-1-cyclopropyl-6-fluoro-4-oxo-1,4-dihydro-1,8-naphthyridine-3-carboxylic acid methanesulfonate], the “Moisture Content” value [1] is reported as 2-4%.

For `CON=C1CN(c2nc3c(cc2F)c(=O)c(C(=O)O)cn3C2CC2)CC1CN` (centres unmarked) [1.5 hydrate, 7-(4-aminomethyl-3-methyloxyiminopyrrolidin-1-yl)-1-cyclopropyl-6-fluoro-4-oxo-1,4-dihydro-1,8-naphthyridine-3-carboxylic acid methanesulfonate·1.5 hydrate], the “stability of hydrate towards relative humidity change” value [2] was “stable”, the equilibrium moisture content ([2]; relative humidity 23 to 64%) was “around 5%” and the “thermal stability compared with the anhydride” value ([3]; 70° C., Table 29) was “the same degree of thermal stability as the anhydride”. For the same molecule, the thermal stability ([3]; 20160 min) was 95.80%, the thermal stability ([3]; 40320 min) was 96.17% and the thermal stability [3] was 100%. The remaining at 168 h ([3]; thermal stability, 1 week, 70° C.) was 97.2%, the remaining at 504 h ([3]; thermal stability, 3 weeks, 70° C.) was 97.2% and the “Moisture Content” value ([1]; hydrate) was 4-6%.

In the case of `CON=C1CN(c2nc3c(cc2F)c(=O)c(C(=O)O)cn3C2CC2)CC1CN` (centres unmarked) [2 hydrate, 7-(4-aminomethyl-3-methyloxylminopyrrolidin-1-yl)-1-cyclopropyl-6-fluoro-4-oxo-1,4-dihydro-1,8-naphthyridine-3-carboxylic acid methanesulfonate], the “Moisture Content” value [1] is reported as 6-8%.

For `CON=C1CN(c2nc3c(cc2F)c(=O)c(C(=O)O)cn3C2CC2)CC1CN` (centres unmarked) [2.5 hydrate, 7-(4-aminomethyl-3-methyloxylminopyrrolidin-1-yl)-1-cyclopropyl-6-fluoro-4-oxo-1,4-dihydro-1,8-naphthyridine-3-carboxylic acid methanesulfonate], the “Moisture Content” value [1] was 8-9%.

For `CON=C1CN(c2nc3c(cc2F)c(=O)c(C(=O)O)cn3C2CC2)CC1CN` (centres unmarked) [3.5 hydrate, 7-(4-aminomethyl-3-methyloxylminopyrrolidin-1-yl)-1-cyclopropyl-6-fluoro-4-oxo-1,4-dihydro-1,8-naphthyridine-3-carboxylic acid methanesulfonate], the “Moisture Content” value [1] was 11-12%.

With `CON=C1CN(c2nc3c(cc2F)c(=O)c(C(=O)O)cn3C2CC2)CC1CN` (centres unmarked) [4 hydrate, 7-(4-aminomethyl-3-methyloxylminopyrrolidin-1-yl)-1-cyclopropyl-6-fluoro-4-oxo-1,4-dihydro-1,8-naphthyridine-3-carboxylic acid methanesulfonate] the “Moisture Content” value [1] was 12-13%.
